Test results taken from patent publication US20240148779A1, “METHODS FOR THE TREATMENT OF PROTEINOPATHIES” (RENATUS INC., priority 2022, published 2024).

Tests used:
ARPE-19 cells = assay: Cytotoxicity induced by pre-aggregated Aβ42 in ARPE-19 cells (CCK-8); assay type: cell-based; details: ARPE-19, Aβ42 25 μM, 48 hours, cyclodextrins 1, 2.5 and 5 mg/mL, FIG. 7
Description: (§1) Amyloid beta 1-42 (Aβ42) was dissolved in distilled water at a concentration of 1 mM, vortexed for 30 seconds, and then incubated at 37° C. for 7 days to induce pre-aggregation. […] ARPE-19 cells were maintained using DMEM/F12 media containing 10% fetal bovine serum, 1% Penicillin-Streptomycin, 1% HEPES, and 2.5 mM L-Glutamine. […] On the next day, the cells were treated with pre-aggregated Aβ42 at a concentration of 25 μM for 48 hours in the presence of cyclodextrins (1, 2.5, and 5 mg/mL).

SH-SY5Y cells [1] = assay: Plasma membrane cholesterol extraction in SH-SY5Y cells; assay type: cell-based; details: cyclodextrin 20 mg/mL, 37° C., 1 hour, FIG. 11
Description: Since cyclodextrin-mediated cytotoxicity is known to be caused by excessive plasma membrane cholesterol extraction and consequential membrane disruption, we investigated cholesterol extraction from the cells. […] The next day, the cells treated with cyclodextrins at a concentration of 20 mg/mL at 37° C. for 1 hour. The supernatant was collected, centrifuged at a rate of 14,000 g for 30 minutes to remove cell debris and microvesicles, and then the cholesterol concentration in the supernatant was quantified using a Cholesterol Quantification Kit (Sigma Aldrich).

TNF-α = assay: Aβ42 aggregate-induced inflammation, secreted TNF-α by ELISA in SH-SY5Y cells; assay type: cell-based; details: Aβ42 25 μM, 24 hours, cyclodextrins 2.5 mg/mL, FIG. 12
Description: The pre-aggregated Aβ42 was treated at a concentration of 25 μM for 24 hours with or without cyclodextrins and enzyme-linked immunosorbent assay (ELISA) was performed to measure inflammatory cytokines secreted by the cells. […] GCD oligomer was prepared by using gamma-cyclodextrin (GCD) monomers.

SH-SY5Y cells [2] = assay: Cytotoxicity induced by pre-aggregated Aβ42 in SH-SY5Y cells (CCK-8); assay type: cell-based; details: Aβ42 25 μM, 48 hours, cyclodextrins 1, 2.5 and 5 mg/mL, FIG. 7
Description: as §1
Then, we investigated the effects of molecular weights of gamma-cyclodextrin oligomers on the cytotoxicity induced by protein aggregates. […] The SH-SY5Y cells were treated with pre-aggregated Aβ42 for 48 hours in the presence of cyclodextrins (5 mg/mL).

SH-SY5Y cells [3] = assay: Cytotoxicity induced by cyclodextrins in SH-SY5Y cells (CCK-8)
Description: HPBCD oligomer was prepared by using hydroxypropyl-beta-cyclodextrin (HPBCD) monomers with a molar substitution value between 0.4 and 0.8. […] SH-SY5Y cells were maintained using DMEM containing 10% fetal bovine serum, 1% Penicillin-Streptomycin, and retinoic acid (50 μM) to induce differentiation into neuron-like cells. Media was changed total three times (1, 3, and 5 days post-seeding) and the cells were seeded for experiments on the next day. The cells were seeded in a 96-well plate at a density of 5×10^4 cells per well. On the next day, the cells were treated with each cyclodextrin at 2.5 mg/mL, 5 mg/mL, 10 mg/mL, and 20 mg/mL for 24 hours. Cellular viability was measured using Cell Counting Kit-8 (CCK-8) and measuring the absorbance at 450 nm.

SH-SY5Y cells [4] = assay: Cytotoxicity induced by pre-aggregated alpha-synuclein in SH-SY5Y cells; assay type: cell-based; details: αSyn 1 μM, 24 hours, cyclodextrins 1, 2.5 and 5 mg/mL, FIG. 8
Description: as §1
Using the SH-SY5Y cells, the cytotoxicity of aggregated alpha-synuclein (αSyn) was evaluated. The cells were treated with pre-aggregated αSyn (1 μM) for 24 hours in the presence of cyclodextrins (1, 2.5, and 5 mg/mL).

hydroxypropyl-gamma-cyclodextrin [HPGCD]
effect on cytotoxicity induced by Aβ42 aggregate (ARPE-19 cells): did not show such effect | level of plasma membrane cholesterol extraction (SH-SY5Y cells [1]): no significance compared to PBS | level of secreted TNF-α (TNF-α): did not show significant effect | effect on cytotoxicity induced by Aβ42 aggregate (SH-SY5Y cells [2]): did not show such effect | cellular viability (SH-SY5Y cells [3]; SH-SY5Y, cyclodextrin 20 mg/mL, 24 hours, FIG. 10): 81.38% | effect on cytotoxicity induced by αSyn aggregate (SH-SY5Y cells [4]): less effective

CC(O)COC[C@H]1O[C@@H]2O[C@H]3[C@H](O)[C@@H](O)[C@@H](O[C@H]4[C@H](O)[C@@H](O)[C@@H](O[C@H]5[C@H](O)[C@@H](O)[C@@H](O[C@H]6[C@H](O)[C@@H](O)[C@@H](O[C@H]7[C@H](O)[C@@H](O)[C@@H](O[C@H]8[C@H](O)[C@@H](O)[C@@H](O[C@H]1[C@H](O)[C@H]2O)O[C@@H]8COCC(C)O)O[C@@H]7COCC(C)O)O[C@@H]6COCC(C)O)O[C@@H]5COCC(C)O)O[C@@H]4COCC(C)O)O[C@@H]3COCC(C)O (stereo partly drawn) [HPBCD, hydroxypropyl-beta-cyclodextrin]
level of secreted TNF-α (TNF-α): did not show significant effect | cellular viability (SH-SY5Y cells [3]; human, 24 h, 20 mg/mL): 43.25%
